Laboratory results reported in patent publication US20240180158A1, “COMPOUNDS HAVING SELECTIVE INACTIVATION ACTIVITY” (University of North Carolina at Wilmington, priority 2021, published 2024).

Legend:
C. albicans = test: Disk diffusion assay, C. albicans; assay type: cell-based; conditions: aromatic compounds
Description: (§1) The following disk diffusion assays were performed with example compounds described above to assess the ability of compounds to inhibit growth of microorganism. A compound that inhibits its target enzyme may perform poorly for a number of reasons, including low solubility in water or slow rate of transport across a microbial membrane.

C. albicans cells = test: C. albicans cell survival after exposure to inactivator; assay type: cell-based, Candida albicans; conditions: 1 h exposure; for cell survival rate, in words: several concentrations, survival after 48 h
Description: According to some embodiments, vinyl sulfone compounds contain both polar and, in some cases, charged functional groups that would make cellular uptake more challenging. However, to test the possibility that these compounds could inhibit the growth of C. albicans, two inactivators were selected for examination. […] The cells were plated and their survival rates were measured after 48 h relative to a control growth in the absence of inactivator.

[1] = molecular target: T1, ASADH from Candida albicans (CalASADH) (Candida albicans, UniProt Q5ALM0); test: Time-dependent inactivation of CalASADH (pre-incubation, residual activity); assay type: biochemical
T1 construct: His tag; made in house
T1 sequence (Q5ALM0 1-365): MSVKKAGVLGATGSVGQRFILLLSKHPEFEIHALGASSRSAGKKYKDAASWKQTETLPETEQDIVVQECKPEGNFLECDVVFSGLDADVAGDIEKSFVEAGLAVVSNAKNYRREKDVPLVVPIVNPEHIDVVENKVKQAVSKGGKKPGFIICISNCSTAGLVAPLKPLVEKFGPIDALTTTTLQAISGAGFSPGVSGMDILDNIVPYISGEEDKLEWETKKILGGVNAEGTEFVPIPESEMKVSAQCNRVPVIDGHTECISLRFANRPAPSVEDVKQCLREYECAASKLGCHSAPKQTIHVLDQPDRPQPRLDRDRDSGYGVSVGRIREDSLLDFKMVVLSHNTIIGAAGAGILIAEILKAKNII
Description: Aryl vinyl sulfones can be reasonably potent inhibitors of CalASADH, each inhibitor was then tested to determine if it would function as an enzyme inactivator. […] In most cases the residual enzyme activity, measured following a subsequent 20-fold dilution into an assay mixture, decreased to less than 5% of the control rate after incubation with low micromolar levels of these inactivators for 10 min or less. To determine the rate of inactivation the concentration of each vinyl sulfone in this pre-incubation mixture was then varied, centered around their initial measured Ki values. The rate of activity loss observed in each incubation reaction (kobs) was plotted against the inhibitor concentration to determine the inactivation rate (kinact) for that compound and the concentration that produces half-maximal inactivation (Ki). […] The proposed product of the reaction of the active site nucleophile (Cys-156) with this inactivator predicts key interactions of the p-nitro group with Arg-18 and Ser-187, and the protonation of the covalent intermediate by His-256. […] Reaction of this inactivator with the active site nucleophile (Cys-156) predicts keys interactions between its carboxyl group and several backbone amide nitrogens that would shift this adduct further from the active site base (His-256). […]

S. aureus = test: Disk diffusion assay, S. aureus; assay type: cell-based; conditions: aromatic compounds
Description: as §1

K pneumoniae = test: Disk diffusion assay, K pneumoniae; assay type: cell-based; conditions: aromatic compounds
Description: as §1

Row | SMILES | disk diffusion, C. albicans (C. albicans) | cell survival (C. albicans cells; 25 μM, survival after 48 h relative to control) | cell survival rate, in words (C. albicans cells) | ASADH inactivation, in words [1] | disk diffusion, S. aureus (S. aureus) | disk diffusion, K pneumoniae (K pneumoniae)
1 | CS(=O)(=O)/C=C/c1ccc2ccccc2n1 [2-MSV-quinoline, 2-(S-methylsulfonylvinyl)quinoline] | weak | – | – | – | – | –
2 | CS(=O)(=O)/C=C/c1ccc(C(=O)O)cc1 [4-(methylsulfonylvinyl)benzoic acid] | – | less than 75% | some decrease in cell survival rate | very good ASADH inactivator | – | –
3 | O=S(=O)(/C=C/c1ccncc1)c1ccccc1 [4-(phenylsulfonylvinyl)pyridine] | – | – | some decrease in cell survival rate | moderate inactivator | – | –
4 | CS(=O)(=O)/C=C/c1ccncc1 [4-MSV-pyridine, 4-(methylsulfonylvinyl)pyridine] | medium | – | – | – | medium | medium
